This is an account of results in ChEMBL document CHEMBL5465560, “Selectivity Literature for EUbOPEN Chemogenomic Library” (2024).

Some results are limits rather than exact numbers.

For orientation: IC50 means the midpoint of a concentration-inhibition curve.

For assay [1], the target named is RAC-alpha serine/threonine-protein kinase (Homo sapiens, UniProt P31749). The assay can be described thus: Selectivity interaction (Rxn Biology Kinase assay) EUB0001632a AKT1. The settings on record: at 10 µM.
Assay [2] concerns the target Homeodomain-interacting protein kinase 1 (Homo sapiens, UniProt Q86Z02). The assay can be described thus: Selectivity interaction (Kinase panel (Z-LYTE Assay)) EUB0001632a HIPK1. The settings on record: at 10 µM.
The target of assay [3] is Epidermal growth factor receptor (Homo sapiens, UniProt P00533). Kind of assay: Selectivity interaction (Enzyme panel (AstraZeneca, AlphaScreen, functional assay)) EUB0000621a EGFR. A general note: In Alpha technology, singlet oxygen from a donor bead excites a nearby acceptor bead.
The target of a further assay is Insulin receptor (Homo sapiens, UniProt P06213). The assay can be described thus: Selectivity interaction (Kinase screening (Nanosyn)) EUB0000604a INSR.
The target in assay [4] is Fibroblast growth factor receptor 3 (Homo sapiens, UniProt P22607). Kind of assay: Selectivity interaction (Kinase panel (Invitrogen)) EUB0000639a FGFR3. The settings on record: at 200 nM.
Assay [5] concerns the target Cyclin-dependent kinase 17 (Homo sapiens) (UniProt Q00537). The assay can be described thus: Selectivity interaction (ActivX KiNativ screen (kinase selectivity in THP-1 cell lysates)) EUB0000639a CDK17. The settings on record: lysate. Type of assay: subcellular.
Assay [6] has as its target 5'-AMP-activated protein kinase catalytic subunit alpha-2 (Homo sapiens) (UniProt P54646). The assay can be described thus: Selectivity interaction (ActivX KiNativ screen (kinase selectivity in THP-1 cell lysates)) EUB0000639a PRKAA2. As to conditions: lysate. Type of assay: subcellular.
For assay [7], the target named is Rho-associated protein kinase 1 (Homo sapiens) (UniProt Q13464). The assay can be described thus: Selectivity interaction (Kinase panel (literature)) EUB0001199aCl ROCK1. The settings on record: at 1 µM.
Assay [8] addresses T1, Mitogen-activated protein kinase kinase kinase 6 (Homo sapiens) (UniProt O95382).
T1 sequence (whole entry): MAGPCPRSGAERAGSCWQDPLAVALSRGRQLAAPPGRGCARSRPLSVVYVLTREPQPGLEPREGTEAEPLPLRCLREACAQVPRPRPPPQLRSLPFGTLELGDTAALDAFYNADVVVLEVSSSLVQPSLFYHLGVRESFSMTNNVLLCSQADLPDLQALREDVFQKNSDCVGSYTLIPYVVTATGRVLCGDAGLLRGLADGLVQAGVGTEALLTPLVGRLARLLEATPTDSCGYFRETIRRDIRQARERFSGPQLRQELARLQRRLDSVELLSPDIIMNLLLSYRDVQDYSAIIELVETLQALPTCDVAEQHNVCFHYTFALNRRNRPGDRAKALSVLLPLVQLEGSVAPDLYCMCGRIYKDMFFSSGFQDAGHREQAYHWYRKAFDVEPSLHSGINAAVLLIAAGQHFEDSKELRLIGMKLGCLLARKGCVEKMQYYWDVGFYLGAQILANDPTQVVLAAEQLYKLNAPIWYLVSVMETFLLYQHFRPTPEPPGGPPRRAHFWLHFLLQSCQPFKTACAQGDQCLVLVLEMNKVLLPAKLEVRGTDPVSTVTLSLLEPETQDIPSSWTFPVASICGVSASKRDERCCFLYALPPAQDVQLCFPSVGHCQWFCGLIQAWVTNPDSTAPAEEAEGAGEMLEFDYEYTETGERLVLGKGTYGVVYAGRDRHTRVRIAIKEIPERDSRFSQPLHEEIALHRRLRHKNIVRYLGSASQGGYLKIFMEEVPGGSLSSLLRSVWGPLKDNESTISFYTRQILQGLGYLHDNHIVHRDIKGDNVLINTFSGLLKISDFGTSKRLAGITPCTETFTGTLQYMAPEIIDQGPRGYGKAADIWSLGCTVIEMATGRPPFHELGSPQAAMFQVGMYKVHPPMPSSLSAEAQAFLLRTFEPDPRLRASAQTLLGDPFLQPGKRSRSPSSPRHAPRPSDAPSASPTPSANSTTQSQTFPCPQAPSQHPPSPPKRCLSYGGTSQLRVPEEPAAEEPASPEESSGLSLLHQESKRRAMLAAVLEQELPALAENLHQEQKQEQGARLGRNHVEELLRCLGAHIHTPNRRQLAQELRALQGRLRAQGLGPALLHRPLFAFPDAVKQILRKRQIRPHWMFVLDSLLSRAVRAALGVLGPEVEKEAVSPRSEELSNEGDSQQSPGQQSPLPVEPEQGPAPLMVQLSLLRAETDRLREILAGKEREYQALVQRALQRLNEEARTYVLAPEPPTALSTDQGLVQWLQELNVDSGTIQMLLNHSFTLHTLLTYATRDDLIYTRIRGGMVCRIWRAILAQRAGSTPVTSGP
The assay can be described thus: Selectivity interaction (KinomeScan (DiscoverX)) EUB0000092b MAP3K6. As to conditions: at 10 µM.

Assay [9] deals with Myosin light chain kinase 2, skeletal/cardiac muscle (Homo sapiens) (UniProt Q9H1R3). The assay can be described thus: Selectivity interaction (KinomeScan (DiscoverX)) EUB0000092b MYLK2. The settings on record: at 10 µM.
Assay [10] can be described thus: Selectivity interaction (RapidFire MS assay (using full-length mouse protein MGAT2)) EUB0001079a MGAT2.

5'-AMP-activated protein kinase catalytic subunit alpha-2 (Homo sapiens), sequence (P54646 whole entry, looked up): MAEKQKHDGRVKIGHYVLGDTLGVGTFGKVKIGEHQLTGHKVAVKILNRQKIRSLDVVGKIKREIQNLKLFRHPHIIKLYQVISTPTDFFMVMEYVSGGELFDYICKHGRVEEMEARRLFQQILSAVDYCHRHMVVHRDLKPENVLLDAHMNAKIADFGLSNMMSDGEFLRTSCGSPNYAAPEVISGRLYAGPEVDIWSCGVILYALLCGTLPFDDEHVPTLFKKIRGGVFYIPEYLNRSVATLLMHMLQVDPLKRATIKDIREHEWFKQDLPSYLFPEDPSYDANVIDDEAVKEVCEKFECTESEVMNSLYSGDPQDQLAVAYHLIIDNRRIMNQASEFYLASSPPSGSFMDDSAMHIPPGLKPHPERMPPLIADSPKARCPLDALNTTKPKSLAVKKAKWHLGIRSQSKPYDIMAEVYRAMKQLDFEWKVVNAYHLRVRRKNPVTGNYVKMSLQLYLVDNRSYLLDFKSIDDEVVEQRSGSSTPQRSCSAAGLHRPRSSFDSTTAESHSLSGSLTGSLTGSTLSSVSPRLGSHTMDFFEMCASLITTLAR
Cyclin-dependent kinase 17 (Homo sapiens), sequence (Q00537 whole entry, looked up): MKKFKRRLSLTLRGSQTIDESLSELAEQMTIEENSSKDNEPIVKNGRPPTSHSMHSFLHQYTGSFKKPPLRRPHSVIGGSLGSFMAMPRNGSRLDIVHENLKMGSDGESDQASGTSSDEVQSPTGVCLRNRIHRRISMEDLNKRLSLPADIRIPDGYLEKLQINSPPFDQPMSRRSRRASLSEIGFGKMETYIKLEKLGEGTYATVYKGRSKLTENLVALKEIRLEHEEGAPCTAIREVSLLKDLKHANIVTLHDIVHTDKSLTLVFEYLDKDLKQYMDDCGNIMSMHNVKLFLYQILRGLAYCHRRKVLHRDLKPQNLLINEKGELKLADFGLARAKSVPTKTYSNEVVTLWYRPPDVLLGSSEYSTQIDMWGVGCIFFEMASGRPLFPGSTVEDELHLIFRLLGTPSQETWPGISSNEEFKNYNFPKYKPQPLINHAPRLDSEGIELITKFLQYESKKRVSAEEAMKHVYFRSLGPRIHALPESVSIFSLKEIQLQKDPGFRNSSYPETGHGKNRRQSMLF
RAC-alpha serine/threonine-protein kinase, sequence (P31749 whole entry): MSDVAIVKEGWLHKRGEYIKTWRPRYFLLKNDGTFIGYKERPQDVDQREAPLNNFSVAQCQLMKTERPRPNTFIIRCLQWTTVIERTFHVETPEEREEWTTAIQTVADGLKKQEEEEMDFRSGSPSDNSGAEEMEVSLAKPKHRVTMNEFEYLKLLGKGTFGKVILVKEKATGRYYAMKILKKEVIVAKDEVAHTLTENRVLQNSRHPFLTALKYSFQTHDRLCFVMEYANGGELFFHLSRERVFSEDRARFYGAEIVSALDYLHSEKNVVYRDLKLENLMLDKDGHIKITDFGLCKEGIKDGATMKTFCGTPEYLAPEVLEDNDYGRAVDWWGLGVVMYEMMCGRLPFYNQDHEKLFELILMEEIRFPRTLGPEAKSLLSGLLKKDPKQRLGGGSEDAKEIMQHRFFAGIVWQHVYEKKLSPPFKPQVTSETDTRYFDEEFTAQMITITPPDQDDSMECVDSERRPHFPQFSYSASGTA
Epidermal growth factor receptor, sequence (P00533 whole entry): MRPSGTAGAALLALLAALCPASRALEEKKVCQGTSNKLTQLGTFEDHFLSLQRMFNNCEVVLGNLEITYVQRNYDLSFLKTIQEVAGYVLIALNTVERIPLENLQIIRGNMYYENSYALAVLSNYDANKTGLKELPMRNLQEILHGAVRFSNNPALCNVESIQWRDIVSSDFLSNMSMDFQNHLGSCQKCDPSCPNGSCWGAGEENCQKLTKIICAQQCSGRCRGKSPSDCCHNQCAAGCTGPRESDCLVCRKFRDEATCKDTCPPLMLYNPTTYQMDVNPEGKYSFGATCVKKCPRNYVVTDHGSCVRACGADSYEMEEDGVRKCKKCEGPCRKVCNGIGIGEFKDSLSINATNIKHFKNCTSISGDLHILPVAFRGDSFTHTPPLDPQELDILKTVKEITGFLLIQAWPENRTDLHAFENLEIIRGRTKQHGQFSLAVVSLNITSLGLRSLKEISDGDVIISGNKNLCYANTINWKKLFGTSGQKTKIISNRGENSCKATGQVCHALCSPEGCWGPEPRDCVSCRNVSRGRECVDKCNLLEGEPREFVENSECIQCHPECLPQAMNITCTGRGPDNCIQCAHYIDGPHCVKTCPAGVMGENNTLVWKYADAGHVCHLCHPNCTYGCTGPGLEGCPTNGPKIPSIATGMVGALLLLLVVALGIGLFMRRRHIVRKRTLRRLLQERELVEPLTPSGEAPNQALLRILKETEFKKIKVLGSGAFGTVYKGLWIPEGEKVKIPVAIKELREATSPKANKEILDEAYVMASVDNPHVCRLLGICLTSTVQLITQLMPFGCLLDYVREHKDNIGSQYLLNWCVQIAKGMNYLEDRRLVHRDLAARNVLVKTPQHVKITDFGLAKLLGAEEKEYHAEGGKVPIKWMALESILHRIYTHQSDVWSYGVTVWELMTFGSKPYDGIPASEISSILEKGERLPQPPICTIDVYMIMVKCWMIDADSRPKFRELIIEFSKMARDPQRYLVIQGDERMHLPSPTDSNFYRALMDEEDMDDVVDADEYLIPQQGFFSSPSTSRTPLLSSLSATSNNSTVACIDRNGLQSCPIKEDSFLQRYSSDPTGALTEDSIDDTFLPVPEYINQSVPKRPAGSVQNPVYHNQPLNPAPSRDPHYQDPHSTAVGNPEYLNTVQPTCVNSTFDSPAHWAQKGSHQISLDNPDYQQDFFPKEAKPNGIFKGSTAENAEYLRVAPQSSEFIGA
Fibroblast growth factor receptor 3, sequence (P22607 23-806 limits assumed): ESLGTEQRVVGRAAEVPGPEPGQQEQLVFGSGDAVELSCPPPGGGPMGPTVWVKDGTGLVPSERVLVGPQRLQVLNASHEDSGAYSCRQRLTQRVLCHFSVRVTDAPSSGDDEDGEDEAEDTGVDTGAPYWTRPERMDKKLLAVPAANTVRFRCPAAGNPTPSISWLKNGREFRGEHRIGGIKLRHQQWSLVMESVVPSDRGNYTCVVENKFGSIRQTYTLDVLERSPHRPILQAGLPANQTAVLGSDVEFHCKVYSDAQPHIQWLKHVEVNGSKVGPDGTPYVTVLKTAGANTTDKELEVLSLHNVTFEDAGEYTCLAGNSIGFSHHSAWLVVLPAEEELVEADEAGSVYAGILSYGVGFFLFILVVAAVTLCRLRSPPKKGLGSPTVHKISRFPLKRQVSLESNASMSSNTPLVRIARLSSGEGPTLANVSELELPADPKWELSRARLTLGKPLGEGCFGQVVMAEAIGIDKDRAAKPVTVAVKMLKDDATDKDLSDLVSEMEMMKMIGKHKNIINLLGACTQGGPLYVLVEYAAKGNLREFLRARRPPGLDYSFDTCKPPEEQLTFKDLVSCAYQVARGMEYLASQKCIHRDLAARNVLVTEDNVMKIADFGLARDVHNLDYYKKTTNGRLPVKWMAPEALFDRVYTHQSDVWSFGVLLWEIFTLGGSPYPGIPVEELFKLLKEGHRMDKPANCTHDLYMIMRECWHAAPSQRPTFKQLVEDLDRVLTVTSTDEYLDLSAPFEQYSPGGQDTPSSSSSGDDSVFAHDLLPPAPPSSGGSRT
Homeodomain-interacting protein kinase 1, sequence (Q86Z02 whole entry, looked up): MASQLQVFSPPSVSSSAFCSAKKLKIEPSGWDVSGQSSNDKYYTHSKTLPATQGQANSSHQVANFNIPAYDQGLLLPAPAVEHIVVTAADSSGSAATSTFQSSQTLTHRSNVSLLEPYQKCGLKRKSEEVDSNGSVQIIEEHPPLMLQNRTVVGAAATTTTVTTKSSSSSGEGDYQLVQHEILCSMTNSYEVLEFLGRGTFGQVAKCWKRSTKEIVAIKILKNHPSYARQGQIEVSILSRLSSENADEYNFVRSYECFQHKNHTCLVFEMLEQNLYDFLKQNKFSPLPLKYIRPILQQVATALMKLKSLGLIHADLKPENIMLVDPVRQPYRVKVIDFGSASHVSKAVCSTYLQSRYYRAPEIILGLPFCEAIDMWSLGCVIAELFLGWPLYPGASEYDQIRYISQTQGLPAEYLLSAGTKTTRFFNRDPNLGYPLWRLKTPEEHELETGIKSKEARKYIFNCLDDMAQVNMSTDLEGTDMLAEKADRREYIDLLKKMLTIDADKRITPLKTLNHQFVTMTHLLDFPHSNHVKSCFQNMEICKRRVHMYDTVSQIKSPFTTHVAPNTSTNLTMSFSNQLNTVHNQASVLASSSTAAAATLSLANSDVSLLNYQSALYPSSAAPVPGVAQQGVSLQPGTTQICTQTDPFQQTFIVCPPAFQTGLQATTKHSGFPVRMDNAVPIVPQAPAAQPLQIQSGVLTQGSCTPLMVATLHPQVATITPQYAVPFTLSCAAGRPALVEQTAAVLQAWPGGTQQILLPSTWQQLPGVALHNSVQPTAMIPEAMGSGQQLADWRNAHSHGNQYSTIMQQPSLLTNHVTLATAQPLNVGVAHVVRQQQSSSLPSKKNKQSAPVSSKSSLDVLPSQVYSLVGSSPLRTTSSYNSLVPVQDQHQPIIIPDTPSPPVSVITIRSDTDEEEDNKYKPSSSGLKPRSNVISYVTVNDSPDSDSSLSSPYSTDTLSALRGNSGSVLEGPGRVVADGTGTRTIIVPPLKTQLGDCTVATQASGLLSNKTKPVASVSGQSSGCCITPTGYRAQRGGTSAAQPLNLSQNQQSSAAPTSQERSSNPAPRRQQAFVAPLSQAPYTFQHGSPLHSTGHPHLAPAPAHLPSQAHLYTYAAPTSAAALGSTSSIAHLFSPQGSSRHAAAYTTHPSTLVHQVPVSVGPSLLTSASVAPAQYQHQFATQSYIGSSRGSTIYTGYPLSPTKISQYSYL

For `Cn1cc(-n2cnc3c(NCc4nc5cc(Cl)c(Cl)cc5[nH]4)nc(N4CCOCC4)nc32)cn1`, the % of inhibition in assay [1] was determined as 0.245%. Besides, in assay [2], the % of control is -0.292%.

Consider `Cc1cc([C@@H](C)Nc2ccccc2C(=O)O)c2nc(N3CCOCC3)cc(=O)n2c1` [AZD-6482], for which the IC50 in assay [3] is above 298000 nM.

As for `Cc1cnc(Nc2ccc(F)cc2Cl)nc1-c1c[nH]c(C(=O)N[C@H](CO)c2cccc(Cl)c2)c1`, the % of inhibition on Insulin receptor came to 4%.

As to `CC[C@@H]1[C@H](F)C(=O)N[C@@H]1COc1nccc2cc(C(N)=O)c(OC)cc12` [ZIMLOVISERTIB], the % of inhibition is -0.438% in [4]; -4.8% in [5] (at 0.01 µM); -2.9% in [5] (at 0.04 µM); 2.8% in assay [5] (at 0.2 µM); 6% in [5] (at 1 µM); 5.6% in [5] (at 5 µM). Besides, the % of inhibition was determined as 16% in [6] (at 0.01 µM); 21.7% in assay [6] (at 0.04 µM); 11.2% in [6] (at 0.2 µM); 11.8% in assay [6] (at 1 µM); 28.8% in assay [6] (at 5 µM).

On to `CN1Cc2nccc(-c3cn(C)nc3-c3ccc(F)cc3)c2C1=O`, for which, in [7], the % of inhibition was -3%.

Take `CCC(=O)N1CCN(c2ccc(-n3c(=O)ccc4cnc5ccc(-c6cnc7ccccc7c6)cc5c43)cc2C(F)(F)F)CC1`: the % of control amounted to 100% in assay [8] and 40% in assay [9].

On to `Nc1cnc(N2CCc3cc(S(=O)(=O)Nc4c(F)cc(Cl)cc4F)cc(N4CCCC4=O)c32)nc1` [TP-020n], for which the IC50 in assay [10] stood at 530 nM.
